Several values for one entry are separate records, joined by “and”; a condition that tells them apart may be missing. Identical values can stand only once.
SMILES | melting point
O=C(Cc1cccc(O)c1)NNC(=O)c1cc([N+](=O)[O-])cc([N+](=O)[O-])c1 | 248 to 249 °C
O=C(Cc1cccc(O)c1)NNC(=O)c1ccc(O)cc1O [compound 1] | 233 to 235 °C
O=C(Cc1cccc(O)c1)NNC(=O)c1ccc(OCc2ccccc2)cc1 [compound 2] | 199 to 200 °C
O=C(Cc1cccc(O)c1)NNC(=O)c1ccc(O)cc1 [compound 3] | 207 to 208 °C
O=C(Cc1cccc(O)c1)NNC(=O)c1cccc(OCc2ccccc2)c1 [compound 4] | 152 to 153 °C
O=C(Cc1cccc(O)c1)NNC(=O)c1ccccc1O [compound 5] | 214 to 215 °C
O=C(Cc1cccc(O)c1)NNC(=O)c1cccc(O)c1 [compound 6] | 224 to 225 °C
O=C(Cc1cccc(O)c1)NNC(=O)c1ccc(OCc2ccccc2)cc1Cl [compound 7] | 162 to 164 °C
O=C(Cc1cccc(O)c1)NNC(=O)c1ccc(O)cc1Cl [compound 8] | 165 to 166 °C
COc1cc(Cl)c(C(=O)NNC(=O)Cc2cccc(O)c2)cc1OC [compound 9] | 174 to 175 °C
COc1cc(I)c(C(=O)NNC(=O)Cc2cccc(O)c2)cc1OC [compound 10] | 199 to 200 °C
COc1cc(C(=O)NNC(=O)Cc2cccc(O)c2)c([N+](=O)[O-])cc1OC [compound 11] | 226 to 227 °C
COc1cc(F)c(C(=O)NNC(=O)Cc2cccc(O)c2)c(F)c1 [compound 12] | 198 to 199 °C
COc1ccc(C(=O)NNC(=O)Cc2cccc(O)c2)c(C)c1 [compound 13] | 171 to 172 °C
COc1cc(OCc2ccccc2)ccc1C(=O)NNC(=O)Cc1cccc(O)c1 [compound 14] | 193 to 194 °C
O=C(Cc1cccc(O)c1)NNC(=O)c1cc(Cl)ccc1Br [compound 15] | 212 to 213 °C
O=C(Cc1cccc(O)c1)NNC(=O)c1ccc(OC(F)(F)F)cc1 [compound 16] | 189 to 190 °C
COc1ccccc1C(=O)NNC(=O)Cc1cccc(O)c1 [compound 17] | 181 to 182 °C
Cc1cccc(C(=O)NNC(=O)Cc2cccc(O)c2)c1 [compound 18] | 156 to 157 °C
COC(=O)c1ccc(C(=O)NNC(=O)Cc2cccc(O)c2)cc1 [compound 19] | 201 to 202 °C
O=C(Cc1cccc(O)c1)NNC(=O)c1cccc([N+](=O)[O-])c1 [compound 20] | 179 °C

SMILES | melting point
O=C(Cc1cccc(O)c1)NNC(=O)c1ccccc1F [compound 21] | 154 to 155 °C
Cc1ccc(C(=O)NNC(=O)Cc2cccc(O)c2)cc1 [compound 22] | 175 to 176 °C
O=C(Cc1cccc(O)c1)NNC(=O)c1ccccc1Cl [compound 23] | 172 °C
O=C(Cc1cccc(O)c1)NNC(=O)c1cccc(Cl)c1 [compound 24] | 183 to 184 °C
O=C(Cc1cccc(O)c1)NNC(=O)c1ccc(Cl)cc1Cl [compound 25] | 202 to 203 °C
O=C(Cc1cccc(O)c1)NNC(=O)c1ccccc1I [compound 27] | 190 to 191 °C
O=C(Cc1cccc(O)c1)NNC(=O)c1ccc(Br)cc1 [compound 28] | 229 °C
COc1ccc(C(=O)NNC(=O)Cc2cccc(O)c2)c(OC)c1 [compound 29] | 197 to 198 °C
Cc1ccccc1C(=O)NNC(=O)Cc1cccc(O)c1 [compound 30] | 197 to 198 °C
O=C(Cc1cccc(O)c1)NNC(=O)c1ccc(F)cc1 [compound 31] | 182 to 183 °C
O=C(Cc1cccc(O)c1)NNC(=O)c1ccc2ccccc2c1 [compound 32] | 201 to 202 °C
O=C(Cc1cccc(O)c1)NNC(=O)c1cccc(Br)c1 [compound 33] | 194 to 195 °C
O=C(Cc1cccc(O)c1)NNC(=O)c1cccc2ccccc12 [compound 34] | 210 to 211 °C
COc1cc(O)ccc1C(=O)NNC(=O)Cc1cccc(O)c1 [compound 35] | 208 to 209 °C
COc1ccc(C(=O)NNC(=O)Cc2cccc(O)c2)cc1 [compound 36] | 158 to 159 °C
O=C(Cc1cccc(O)c1)NNC(=O)c1cccc(F)c1 [compound 37] | 176 to 177 °C
O=C(Cc1cccc(O)c1)NNC(=O)c1c(F)cccc1F [compound 38] | 191 to 192 °C
N#Cc1cccc(C(=O)NNC(=O)Cc2cccc(O)c2)c1 [compound 39] | 181.5 to 182.5 °C
O=C(Cc1cccc(O)c1)NNC(=O)c1cccc(Cl)c1Cl [compound 40] | 220 to 221 °C
O=C(Cc1cccc(O)c1)NNC(=O)c1ccc(F)c(F)c1 [compound 41] | 164 °C
CCOc1cccc(C(=O)NNC(=O)Cc2cccc(O)c2)c1 [compound 42] | 130 to 132 °C

SMILES | melting point
CC(C)(C)c1ccc(C(=O)NNC(=O)Cc2cccc(O)c2)cc1 [compound 43] | 183 to 184 °C
CCc1ccc(C(=O)NNC(=O)Cc2cccc(O)c2)cc1 [compound 44] | 155 to 156 °C
CCOc1ccc2ccccc2c1C(=O)NNC(=O)Cc1cccc(O)c1 [compound 45] | 148 to 150 °C
O=C(Cc1cccc(O)c1)NNC(=O)c1ccc(SC(F)(F)F)cc1 [compound 46] | 165 to 166 °C
O=C(Cc1cccc(O)c1)NNC(=O)c1ccccc1C(F)(F)F [compound 47] | 195 to 196 °C
O=C(Cc1cccc(O)c1)NNC(=O)c1cccc(OC(F)(F)F)c1 [compound 48] | 256 to 257 °C
O=C(Cc1cccc(O)c1)NNC(=O)c1ccccc1[N+](=O)[O-] [compound 49] | 206 to 207 °C
O=C(Cc1cccc(O)c1)NNC(=O)c1ccc(Cl)cc1 [compound 50] | 223 °C
O=C(Cc1cccc(O)c1)NNC(=O)c1ccccc1 [compound 51] | 162 to 163 °C
O=C(Cc1cccc(O)c1)NNC(=O)c1cccc(C(Cl)Cl)c1 [compound 52] | 154 to 155 °C
O=C(Cc1cccc(O)c1)NNC(=O)c1cccc(C(F)(F)F)c1 [compound 53] | 161 to 162 °C
O=C(Cc1cccc(O)c1)NNC(=O)c1ccc(CCl)cc1 [compound 54] | 175 to 176 °C
COc1cccc(C(=O)NNC(=O)Cc2cccc(O)c2)c1 [compound 55] | 138 to 139 °C
O=C(Cc1cccc(O)c1)NNC(=O)c1ccc([N+](=O)[O-])cc1 [compound 56] | 222 to 223 °C
Cc1cc(O)cc(O)c1C(=O)NNC(=O)Cc1cccc(O)c1 [compound 57] | 226 to 227 °C
Cc1cc(OCc2ccccc2)cc(OCc2ccccc2)c1C(=O)NNC(=O)Cc1cccc(O)c1 [compound 58] | 165 to 166 °C
CCc1cc(OCc2ccccc2)ccc1C(=O)NNC(=O)Cc1cccc(O)c1 [compound 59, N′-[2-(3-hydroxyphenyl)acetyl]-4-benzyloxy-2-ethylbenzohydrazide] | 190 to 191 °C
CCc1cc(O)ccc1C(=O)NNC(=O)Cc1cccc(O)c1 [compound 60, N′-[2-(3-hydroxyphenyl)acetyl]-2-ethyl-4-hydroxybenzohydrazide] | 199 to 200 °C
Cc1cc(O)c(C)c(O)c1C(=O)NNC(=O)Cc1cccc(O)c1 [compound 61] | 193 to 194 °C
CCc1cc(O)cc(O)c1C(=O)NNC(=O)Cc1cccc(O)c1 [compound 62] | 251 °C
O=C(Cc1cccc(O)c1)NNC(=O)c1c(O)cc(O)cc1Br [compound 63] | 226 to 227 °C

SMILES | melting point
O=C(Cc1cccc(O)c1)NNC(=O)c1c(Br)cc(OCc2ccccc2)cc1OCc1ccccc1 [compound 64] | 194 to 195 °C
COc1ccc(CC(=O)NNC(=O)c2c(C)cc(O)cc2O)cc1O [compound 66] | 232 to 233 °C
O=C(Cc1cccc(O)c1)NNC(=O)c1c(O)cc(O)cc1O [compound 68, N′-[2-(3-hydroxyphenyl)acetyl]-2,4,6-trihydroxybenzohydrazide] | 237 to 238 °C
CCCc1cc(O)cc(O)c1C(=O)NNC(=O)Cc1cccc(O)c1 [compound 69] | 198 to 200 °C
O=C(Cc1cccc(O)c1)NNC(=O)c1c(O)cc(O)cc1Cl [compound 70, N′-[2-(3-hydroxyphenyl)acetyl]-2-chloro-4,6-dihydroxybenzohydrazide] | 217 °C and 213 to 215 °C
O=C(Cc1cccc(O)c1)NNC(=O)c1ccc(O)cc1C(F)(F)F [compound 71] | 210 to 212 °C
O=C(Cc1cccc(O)c1)NNC(=O)c1c(O)cc(O)cc1F [compound 72] | 230 to 232 °C
O=C(Cc1cccc(O)c1)NNC(=O)c1c(O)cc(O)cc1Br [compound 73] | 259 °C
O=C(Cc1cccc(O)c1)NNC(=O)c1ccc(O)c([N+](=O)[O-])c1 [compound 74, N′-[2-(3-hydroxyphenyl)acetyl]-4-hydroxy-3-nitrobenzohydrazide] | 190 to 193 °C
Cc1cc(C(=O)NNC(=O)Cc2cccc(O)c2)ccc1O [compound 75] | 207 to 208 °C
CC(C)(C)c1cc(C(=O)NNC(=O)Cc2cccc(O)c2)ccc1O [compound 76] | 154 to 157 °C
O=C(Cc1cccc(O)c1)NNC(=O)c1ccc(O)c(Cl)c1 [compound 77] | 230 to 231 °C
Nc1cc(C(=O)NNC(=O)Cc2cccc(O)c2)ccc1O [compound 78, N′-[2-(3-hydroxyphenyl)acetyl]-3-amino-4-hydroxybenzohydrazide] | 264 to 265 °C
COc1cc(O)cc(Cl)c1C(=O)NNC(=O)Cc1cccc(O)c1 [compound 79] | 105 to 106 °C
O=C(Cc1cccc(O)c1)NNC(=O)c1cc(Cl)c(O)cc1O [compound 80] | 269 to 270 °C
O=C(Cc1cccc(O)c1)NNC(=O)c1ccc(O)c(Cl)c1O [compound 81] | 252 to 253 °C
Cc1c(O)ccc(C(=O)NNC(=O)Cc2cccc(O)c2)c1C [compound 82] | 251 °C
CCCCCc1cc(O)cc(O)c1C(=O)NNC(=O)Cc1cccc(O)c1 [compound 83] | 230 °C
